21 molecules from ChEMBL document CHEMBL1201862, “PubChem BioAssay data set” (2004) can be followed below.

Some test systems named below: DLD-1; DMS-273; LXFL 529; M19-MEL; XF498; HOP-18; KM-20L2; RXF 631; SNB-78.
Assay in all cases: inhibition of tumour cell growth, NCI panel, 48 h

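Method: 48-hour compound exposure of cells in 96-well plates, five concentrations, linear interpolation of endpoints. GI50 is the concentration that inhibits growth by half.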 Calls of active or inactive are those of the source. Cut-off read from the data, not from the text of the source: active = GI50 up to about 1.1 µM and inactive = higher. Some results are limits rather than exact numbers.

With `COc1ccccc1-c1cc(O)c2cc3c(cc2n1)OCO3`, the GI50 in the assay on DLD-1 was 40.2 µM (inactive); in the assay with DMS-273 it was 19.6 µM (inactive); in the assay on LXFL 529 it was 48.9 µM (inactive); with M19-MEL, 32.4 µM (inactive); in the assay with XF498 it was 21.9 µM (inactive).

Take `COC(=O)C12OCC34C(CC5C(C)C6=CC(=O)OC6=CC5(C)C3C(O)C1O)OC(=O)C(OC(C)=O)C24` (stereo not given): the GI50 in the assay on DLD-1 is 14.6 µM (inactive); in the assay on DMS-273, 14.4 µM (inactive); in the assay on HOP-18, 14.2 µM (inactive); in the assay with KM-20L2, 17 µM (inactive); in the assay on LXFL 529, 14.6 µM (inactive); in the assay on M19-MEL, 15.4 µM (inactive). Besides, the GI50 in the assay with RXF 631 is 16.8 µM (inactive); with SNB-78 it was 11.6 µM (inactive); in the assay on XF498 it was 12.2 µM (inactive).

As for `COc1cc(C(C)O)c[n+](CCc2c[nH]c3ccccc23)c1` (stereo not given), the GI50 in the assay with DLD-1 is > 100 µM (inactive); in the assay on DMS-273, > 100 µM (inactive); in the assay with KM-20L2, 56.9 µM (inactive); in the assay on LXFL 529 it was > 100 µM (inactive); in the assay with M19-MEL, > 100 µM (inactive); in the assay on RXF 631, > 100 µM (inactive). The GI50 in the assay on XF498 is > 100 µM (inactive).

For `Cc1c(C(=O)O)n(C)c(=O)n(C)c1=O`, the GI50 with DLD-1, in the assay with DMS-273, in the assay on HOP-18, in the assay on KM-20L2, with LXFL 529 and in the assay on M19-MEL was > 100 µM (inactive) throughout. For the same molecule, in the assay on XF498, the GI50 is > 100 µM (inactive).

As for `COC1CC(Br)(C#N)C1` (stereo not given), the GI50 in the assay on DLD-1, in the assay with HOP-18, in the assay on KM-20L2, in the assay with M19-MEL and in the assay with SNB-78 was > 100 µM (inactive) each time.

`Cn1c(=O)c(C(=O)NC(=O)OCc2ccccc2)cn(CCSCCOC(=O)NCCCCCCNC(=O)OCCSCCn2cc(C(=O)NC(=O)OCc3ccccc3)c(=O)n(C)c2=O)c1=O`: the GI50 with DLD-1, with DMS-273, in the assay on KM-20L2, in the assay with LXFL 529, in the assay with M19-MEL and in the assay on RXF 631 was > 100 µM (inactive) throughout. In addition, the values for the GI50 with SNB-78 and in the assay with XF498 were > 100 µM (inactive) and 16.9 µM (inactive), respectively.

On to `CC[N+](C)(C)c1ccc(C(=C2C=CC(=[N+](C)C)C=C2)c2ccc(N(C)C)cc2)cc1`, for which the GI50 in the assay on DLD-1 was 6.07 µM (inactive); with DMS-273 it was 6.4 µM (inactive); in the assay on HOP-18, 6.89 µM (inactive); in the assay with LXFL 529, 6.04 µM (inactive); with M19-MEL it was 7.91 µM (inactive); in the assay with RXF 631 it was 13.4 µM (inactive). In the assay with XF498, the GI50 is 15.8 µM (inactive).

As for `CC(=O)SCCC1c2[nH]c3ccccc3c2CCN1O` (stereo not given), the GI50 is > 100 µM (inactive) in the assay on DLD-1; 86.1 µM (inactive) in the assay on DMS-273; > 100 µM (inactive) in the assay on HOP-18; > 100 µM (inactive) in the assay on KM-20L2; 56.4 µM (inactive) in the assay with LXFL 529; > 100 µM (inactive) in the assay with M19-MEL.

Turning to `CC1=NN(C(=O)Cc2ccccc2)C(=O)/C1=C\c1cccc(O)c1`, the GI50 with DLD-1, in the assay on DMS-273, in the assay with HOP-18, in the assay on M19-MEL, in the assay on SNB-78 and in the assay on XF498 was > 100 µM (inactive) throughout.

As for `COc1ccc(/C=C2\C(=O)N(C(=O)c3ccc(NC(C)=O)cc3)N=C2C)cc1`, the GI50 is > 10 µM (inactive) with DLD-1; > 100 µM (inactive) with DMS-273; > 100 µM (inactive) with HOP-18; > 100 µM (inactive) with M19-MEL; > 100 µM (inactive) in the assay with SNB-78; > 100 µM (inactive) with XF498.

With `NC1=NN(c2ccccc2)C(=O)C1C(=O)C(=O)NC1C2CC3CC(C2)CC1C3` (stereo not given), the GI50 is > 100 µM (inactive) in the assay on DLD-1; > 100 µM (inactive) in the assay with DMS-273; > 100 µM (inactive) in the assay with HOP-18; > 100 µM (inactive) in the assay with KM-20L2; 66.1 µM (inactive) in the assay with LXFL 529; > 100 µM (inactive) in the assay on M19-MEL. Further, the GI50 in the assay on RXF 631 and in the assay on SNB-78 was > 100 µM (inactive) throughout.

As to `CN(C)Cc1[nH]c2ccccc2c1C(=O)c1ccccc1`, the GI50 was > 100 µM (inactive) with DLD-1; > 100 µM (inactive) in the assay on DMS-273; 64.9 µM (inactive) in the assay on KM-20L2; > 100 µM (inactive) in the assay with LXFL 529; 97.9 µM (inactive) with XF498.

`O=[PH](O)c1cccnc1`: the GI50 in the assay on DLD-1, with DMS-273, with KM-20L2, in the assay with LXFL 529, with M19-MEL and with RXF 631 was > 100 µM (inactive) in each case. In addition, the GI50 in the assay with SNB-78 and in the assay with XF498 was > 100 µM (inactive) throughout.

Regarding `C/C(=N\NC(=O)CC(=O)N(C(=O)c1ccc(Cl)cc1)c1ccc(C)cc1)c1ccccc1O`, the GI50 is 74.6 µM (inactive) with DLD-1; 31.7 µM (inactive) with DMS-273; 18 µM (inactive) in the assay on KM-20L2; > 100 µM (inactive) in the assay with LXFL 529; > 100 µM (inactive) in the assay on M19-MEL; > 100 µM (inactive) in the assay on RXF 631. Further, the figures for the GI50 in the assay on SNB-78 and with XF498 were 57.3 µM (inactive) and > 100 µM (inactive), respectively.

On to `CC1=NN(C(=O)c2ccccc2O)C(=O)/C1=C/c1c(O)ccc2ccccc12`, for which the GI50 is 4.59 µM (inactive) in the assay on KM-20L2; 1.72 µM (inactive) with LXFL 529; 0.46 µM (active) in the assay with M19-MEL; 26.6 µM (inactive) with SNB-78; 4.86 µM (inactive) with XF498.

In the case of `O=S1(=O)CCCS(=O)(=O)C(c2ccccc2)=C1c1ccccc1`, the GI50 in the assay on DLD-1 is 39.7 µM (inactive); with HOP-18 it was 44.6 µM (inactive); in the assay with KM-20L2, 37.2 µM (inactive); with LXFL 529, 29.6 µM (inactive); in the assay with M19-MEL, 70.5 µM (inactive); with RXF 631, 84.7 µM (inactive). For the same molecule, the GI50 in the assay on SNB-78 is > 100 µM (inactive).

Consider `Cc1ccc(N2C(=O)C(Cl)=C(Cl)C2=O)cc1`, for which the GI50 was 20.9 µM (inactive) with DLD-1; 62.5 µM (inactive) in the assay with DMS-273; 19 µM (inactive) with HOP-18; 24.2 µM (inactive) in the assay on KM-20L2; 19.1 µM (inactive) in the assay with LXFL 529; 21 µM (inactive) in the assay with M19-MEL. In addition, the GI50 with RXF 631 was 21.1 µM (inactive); in the assay with SNB-78, 24.2 µM (inactive).

For `CN1CC[C@]2(C)c3c(O)cccc3CC3CCCC1C32C` (stereo not given in full), the GI50 was > 100 µM (inactive) in the assay on DLD-1; 54.1 µM (inactive) in the assay with HOP-18; > 100 µM (inactive) in the assay on KM-20L2; > 100 µM (inactive) with LXFL 529; > 100 µM (inactive) in the assay with M19-MEL; > 100 µM (inactive) in the assay with RXF 631. Besides, the GI50 is > 100 µM (inactive) in the assay on SNB-78 and 59.6 µM (inactive) in the assay with XF498.

For the molecule `CCOCC(=O)N[C@H]1CCc2cc(OC)c(OC)c(OC)c2-c2ccc(SC)c(=O)cc21`, the GI50 is < 0.01 µM (active) with DLD-1; < 0.01 µM (active) with DMS-273; > 75.3 µM (inactive) in the assay on HOP-18; < 0.01 µM (active) in the assay on KM-20L2; < 0.01 µM (active) in the assay with LXFL 529; < 0.01 µM (active) with M19-MEL. Besides, the results for the GI50 in the assay on RXF 631, with SNB-78 and in the assay on XF498 were < 0.01 µM (active), < 0.01 µM (active) and < 0.0224 µM (active), respectively.

Turning to `CC1(Br)C(=O)NC(=O)N([C@H]2C[C@H](O)[C@@H](CO)O2)C1N=[N+]=[N-]` (stereo not given in full), the GI50 in the assay on DLD-1, in the assay on DMS-273, with HOP-18, in the assay with KM-20L2, in the assay with LXFL 529 and in the assay on M19-MEL was > 100 µM (inactive) in each case. Further, the GI50 in the assay with RXF 631, with SNB-78 and with XF498 was > 100 µM (inactive) each time.

For `O=P1(N(CCCl)CCCl)NCCCO1` (stereo not given) [CYCLOPHOSPHAMIDE ANHYDROUS], the GI50 in the assay with DLD-1 was > 250 µM (inactive); in the assay with DMS-273, > 246 µM (inactive); in the assay on HOP-18, 121 µM (inactive); with KM-20L2 it was > 250 µM (inactive); in the assay on LXFL 529, > 250 µM (inactive); with M19-MEL it was 218 µM (inactive). Moreover, the GI50 with RXF 631 was > 250 µM (inactive); in the assay on SNB-78, > 209 µM (inactive); with XF498, 177 µM (inactive).
